Assay results reported in PMC10461462, “A critical inter‐subunit interaction for the transmission of the allosteric signal in the Agrobacterium tumefaciens ADP‐glucose pyrophosphorylase” (Protein Science : A Publication of the Protein Society, 2023).
Where two headings read alike, the source gives them in different places.

Experiments:
[1] = biological target: T1, R11D (Agrobacterium tumefaciens, UniProt P39669, R11D); assay: Thermal shift assay (SYPRO Orange) with varied ligand concentration in 50 mM HEPES pH 8.0, 0.02 mg/mL protein, 25-95 C; Tm versus log ligand concentration fitted to obtain Kd.; assay type: binding; details: n = 3
T1 construct: gene glgC; His-tagged, from pBLH1/pBHL1 derivative, expressed in E. coli BL21(DE3); homotetramer
Procedure: (§1) We used thermal shift assays to find whether the effect of the mutation was on the ability of Fru6P/Pyr either to bind or activate the enzyme. Activators of ADP‐Glc PPase bind to the enzyme and stabilize it from thermal denaturation (Bhayani & Ballicora, [2022]).
(§2) Thermal shift assays were performed as described (Hill et al., [2019]) using the QuantStudio™ 3 Real‐Time PCR System (Thermo Fisher Scientific) and QuantStudio™ Design and Analysis Software v1.5.1. The final volume for the assay was 20 μL and contained 50 mM HEPES (pH 8.0), SYPRO Orange Dye (Sigma‐Aldrich) (4×) and 0.02 mg/mL purified protein, in the absence or presence of 5 mM Fru6P, and 5 mM Pyr. A control with no protein was also performed for all the samples. A continuous temperature increases from 25.0 to 95.0°C was scanned at a ramp increment of 0.1°C per second. Scans were run in triplicates and averaged. The unfolding temperatures (T m ) of the proteins were measured using the minimum of the third derivative of the scanned fluorescence vs. temperature (d^3F/dT^3) (Bhayani & Ballicora, [2022]).
(§3) Thermal Shift assays were used to study the relationship between the melting temperature ( Tm ) of a protein and the logarithm of the ligand concentration using the following equation (Bhayani & Ballicora, [2022]). y=Tm0+Alog101+10^x/Kd.
(§4) In this equation, y is Tm , and x is the logarithm of the ligand concentration. […] The data was fitted to an equation using Origin™ 2017 and the Levenberg–Marquardt algorithm, to find the optimum parameters Tm0 , A , and Kd (Bhayani & Ballicora, [2022]). To ensure robustness and reliability, all thermal shift assays were conducted in triplicate.

[2] = biological target: T2, WT (Agrobacterium tumefaciens, UniProt P39669); assay: as above; assay type: binding; details: n = 3
T2 construct: gene glgC; His-tagged, from pBLH1/pBHL1 (pET28c derivative), expressed in E. coli BL21(DE3); homotetramer
T2 sequence (P39669 1-420): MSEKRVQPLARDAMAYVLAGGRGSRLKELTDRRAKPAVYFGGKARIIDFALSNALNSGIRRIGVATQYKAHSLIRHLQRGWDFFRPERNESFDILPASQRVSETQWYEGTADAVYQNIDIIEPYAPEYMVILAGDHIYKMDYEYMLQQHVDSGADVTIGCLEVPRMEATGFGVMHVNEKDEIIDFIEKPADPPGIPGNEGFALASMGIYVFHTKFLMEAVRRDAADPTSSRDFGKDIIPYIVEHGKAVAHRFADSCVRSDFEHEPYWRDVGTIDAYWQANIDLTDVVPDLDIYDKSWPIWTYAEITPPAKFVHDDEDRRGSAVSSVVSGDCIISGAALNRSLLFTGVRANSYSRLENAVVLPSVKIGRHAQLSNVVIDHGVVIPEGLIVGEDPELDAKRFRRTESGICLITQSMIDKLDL
Procedure: as §1, §2, §3, §4

[3] = biological target: T3, D141A (Agrobacterium tumefaciens, UniProt P39669, D141A); assay: Activator saturation of ADP-Glc synthesis (PPi converted to phosphate, Malachite Green) in 50 mM HEPES pH 7.5, 7 mM MgCl2, 1.5 mM Glc1P, 1.5 mM ATP; modified Hill fit.; assay type: biochemical; details: n = 2; read-out: A0.5
T3 construct: gene glgC; His-tagged, from pBLH1/pBHL1 derivative, expressed in E. coli BL21(DE3); homotetramer
Procedure: (§5) This condition was considered “saturating concentrations” of substrate. To analyze the effect of the activators in “sub‐saturating concentrations” of substrate, the concentration of ATP was 0.2 mM.
(§6) Table S1 . Kinetic parameters for the activators of the A. tumefaciens ADP -Glc PPase wild type, and mutants.
(§7) a Assays were performed as described in Materials and Methods under “activator saturation assay”.
(§8) b Activation fold is calculated by dividing the maximum velocity (Vm) by the velocity in the absence of activator (V0).

[4] = biological target: T4, D141E (Agrobacterium tumefaciens, UniProt P39669, D141E); assay: as above; assay type: biochemical; details: n = 2
T4 construct: gene glgC; His-tagged, from pBLH1/pBHL1 derivative, expressed in E. coli BL21(DE3); homotetramer
Procedure: as §5, §6, §7, §8

[5] = biological target: T5, D141N (Agrobacterium tumefaciens, UniProt P39669, D141N); assay: as above; assay type: biochemical; details: n = 2; read-out: A0.5
T5 construct: gene glgC; His-tagged, from pBLH1/pBHL1 derivative, expressed in E. coli BL21(DE3); homotetramer
Procedure: as §5, §6, §7, §8

[6] = biological target: T6, R11D/D141R (Agrobacterium tumefaciens, UniProt P39669, D141R/R11D); assay: as above; assay type: biochemical; details: n = 2; read-out: A0.5
T6 construct: gene glgC; His-tagged, from pBLH1/pBHL1 derivative, expressed in E. coli BL21(DE3); homotetramer
Procedure: as §5, §6, §7, §8

[7] = biological target: T7, R11K (Agrobacterium tumefaciens, UniProt P39669, R11K); assay: as above; assay type: biochemical; details: n = 2
T7 construct: gene glgC; His-tagged, from pBLH1/pBHL1 derivative, expressed in E. coli BL21(DE3); homotetramer
Procedure: as §5, §6, §7, §8

[8] = biological target: T2, WT; assay: as above; assay type: biochemical; details: n = 2; read-out: A0.5
Procedure: as §5, §6, §7, §8

[9] = biological target: T3, D141A; assay: Activator saturation of ADP-Glc synthesis (Malachite Green) at pH 7.5 with 1.5 mM Glc1P and 4 mM ATP; modified Hill fit.; assay type: biochemical; details: n = 2; read-out: A0.5
Procedure: as §5
(§9) The assays were performed as described in Materials and Methods in the presence of 4 mM ATP.
(§10) (1 picture or pasted object on this page, not shown here)

[10] = tested on: T8, R11A; assay: Activator saturation of ADP-Glc synthesis (PPi converted to phosphate, Malachite Green) in 50 mM HEPES pH 7.5, 7 mM MgCl2, 1.5 mM Glc1P, 1.5 mM ATP; modified Hill fit.; assay type: biochemical; design: method as in values quoted from other papers; details: n = 2; read-out: A0.5; cited from earlier work
T8 construct: values from literature (Gomez-Casati et al., 2001)
Procedure: as §5, §6, §7, §8

[11] = biological target: T5, D141N; assay: Effector saturation of ADP-Glc synthesis (Malachite Green) at pH 7.5 with 1.5 mM Glc1P and 4 mM ATP, effector inhibiting instead of activating; modified Hill fit.; assay type: biochemical; details: n = 2; read-out: A0.5 (mM), footnote: I0.5
Procedure: as §5, §9, §10

[12] = biological target: Agrobacterium tumefaciens ADP-glucose pyrophosphorylase double mutant R11D/D141R (Agrobacterium tumefaciens) (UniProt P39669); assay: SEC
[13] = biological target: Agrobacterium tumefaciens ADP-glucose pyrophosphorylase mutant D141A (Agrobacterium tumefaciens) (UniProt P39669); assay: SEC
[14] = biological target: Agrobacterium tumefaciens ADP-glucose pyrophosphorylase mutant D141E (Agrobacterium tumefaciens) (UniProt P39669); assay: SEC
[15] = biological target: Agrobacterium tumefaciens ADP-glucose pyrophosphorylase mutant D141N (Agrobacterium tumefaciens) (UniProt P39669); assay: SEC
[16] = biological target: Agrobacterium tumefaciens ADP-glucose pyrophosphorylase mutant D141R (Agrobacterium tumefaciens) (UniProt P39669); assay: SEC
[17] = biological target: Agrobacterium tumefaciens ADP-glucose pyrophosphorylase mutant R11D (Agrobacterium tumefaciens) (UniProt P39669); assay: SEC
[18] = biological target: Agrobacterium tumefaciens ADP-glucose pyrophosphorylase mutant R11K (Agrobacterium tumefaciens) (UniProt P39669); assay: SEC
[19] = biological target: the molecule itself; assay: SEC

Question: Which Kd [1] does the source give for `O=P(O)(O)OC[C@H]1OC(O)(CO)[C@@H](O)[C@@H]1O` (some centres unmarked) [Fru6P, fructose 6-phosphate] here?
Answer: 1820 µM

Question: And the Kd [2]?
Answer: 1510 µM

Question: And the EC50 [3]?
Answer: 840 µM

Question: What about the EC50 ([4]; read-out: A0.5) of the same molecule?
Answer: 30 µM

Question: What about the EC50 [5] of the same molecule?
Answer: 2970 µM

Question: What about the EC50 [6] of the same molecule?
Answer: 1320 µM

Question: And the EC50 [7]?
Answer: 50 µM

Question: And the EC50 [8]?
Answer: 340 µM

Question: And the EC50 [9]?
Answer: 500 µM

Question: And the EC50 [10]?
Answer: 30 µM

Question: Which Kd [1] does the source give for `CC(=O)C(=O)O` [Pyr, pyruvate] here?
Answer: 54 µM

Question: What about the Kd [2] of the same molecule?
Answer: 233 µM

Question: And the EC50 [3]?
Answer: 300 µM

Question: What about the EC50 [4] of the same molecule?
Answer: 60 µM

Question: And the EC50 [7]?
Answer: 40 µM

Question: What about the EC50 [8] of the same molecule?
Answer: 450 µM

Question: What about the EC50 [9] of the same molecule?
Answer: 49 µM

Question: And the IC50 [11]?
Answer: 0.075 mM

Question: With “Agrobacterium tumefaciens ADP-glucose pyrophosphorylase double mutant R11D/D141R (from UniProt P39669) (enzyme)” as the molecule, how does the stoichiometry N [12] read?
Answer: 4

Question: With “Agrobacterium tumefaciens ADP-glucose pyrophosphorylase mutant D141A (from UniProt P39669) (enzyme)” as the molecule, how does the stoichiometry N [13] read?
Answer: 4

Question: Which stoichiometry N [14] does the source give for “Agrobacterium tumefaciens ADP-glucose pyrophosphorylase mutant D141E (from UniProt P39669) (enzyme)” here?
Answer: 4

Question: Which stoichiometry N [15] does the source give for “Agrobacterium tumefaciens ADP-glucose pyrophosphorylase mutant D141N (from UniProt P39669) (enzyme)” here?
Answer: 4

Question: Which stoichiometry N [16] does the source give for “Agrobacterium tumefaciens ADP-glucose pyrophosphorylase mutant D141R (from UniProt P39669) (enzyme)” here?
Answer: 2

Question: Which stoichiometry N [17] does the source give for “Agrobacterium tumefaciens ADP-glucose pyrophosphorylase mutant R11D (from UniProt P39669) (enzyme)” here?
Answer: 4

Question: With “Agrobacterium tumefaciens ADP-glucose pyrophosphorylase mutant R11K (from UniProt P39669) (enzyme)” as the molecule, how does the stoichiometry N [18] read?
Answer: 4

B1: Agrobacterium tumefaciens ADP-glucose pyrophosphorylase wild type (enzyme)
chain: MSEKRVQPLARDAMAYVLAGGRGSRLKELTDRRAKPAVYFGGKARIIDFALSNALNSGIRRIGVATQYKAHSLIRHLQRGWDFFRPERNESFDILPASQRVSETQWYEGTADAVYQNIDIIEPYAPEYMVILAGDHIYKMDYEYMLQQHVDSGADVTIGCLEVPRMEATGFGVMHVNEKDEIIDFIEKPADPPGIPGNEGFALASMGIYVFHTKFLMEAVRRDAADPTSSRDFGKDIIPYIVEHGKAVAHRFADSCVRSDFEHEPYWRDVGTIDAYWQANIDLTDVVPDLDIYDKSWPIWTYAEITPPAKFVHDDEDRRGSAVSSVVSGDCIISGAALNRSLLFTGVRANSYSRLENAVVLPSVKIGRHAQLSNVVIDHGVVIPEGLIVGEDPELDAKRFRRTESGICLITQSMIDKLDL
notes: ADP-glucose pyrophosphorylase (EC 2.7.7.27) of Agrobacterium tumefaciens, ~50 kDa subunit, encoded by plasmid pBHL1 (pET28c derivative) of Hill et al., 2019; also called ADP-Glc PPase; WT; source: E. coli BL21 (DE3), purified (His-Trap FF Ni2+ column, Superdex 200 gel filtration)
Question: Which “stoichiometry N” value [19] does the source give for B1 here?
Answer: 4
